Laboratory results published in the NIST ThermoML archive (doi:10.1021/je501130r).
Numbers after ± are expanded uncertainties.

Details: Liquid, Closed cell (Static) method

SMILES	vapor or sublimation pressure (293.15 K) [kPa]	vapor or sublimation pressure (303.15 K) [kPa]	vapor or sublimation pressure (313.15 K) [kPa]
C=C(F)C(F)(F)F [2,3,3,3-tetrafluoro-1-propene]	591.5 ± 3.5	783.6 ± 3.8	1018.9 ± 4.3
CC(F)(Cl)C(F)(F)F (stereo unspecified) [2-chloro-1,1,1,2-tetrafluoropropane]	128.3 ± 3	181.6 ± 3.1	247.6 ± 3.1
